The record followed here is article PMC7827406, “Structure–Activity Relationship (SAR) Study of Spautin-1 to Entail the Discovery of Novel NEK4 Inhibitors” (International Journal of Molecular Sciences, 2021).

Where two headings read alike, the source gives them in different places.

Common to all, as to assay: biochemical
Set-up in all cases: Eurofins KinaseProfiler full panel at Km ATP, residual kinase activity (%) relative to DMSO

One assay addresses T1, GSK3β(h) (Homo sapiens, UniProt P49841).
T1 construct: gene GSK3B
In short, it runs like this: (§1)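 Compounds screened at 10 µM in radiometric kinase activity assays at Km ATP, reported as remaining kinase activity (%). A KINOMEscan competition-binding screen at 10 µM measured DNA-tagged kinase retained on immobilized active-site ligand by qPCR.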

The target of another assay is CLK3(h) (Homo sapiens, UniProt P49761). In short, it runs like this:
as §1

The target in the next assay is T2, Abl (M351T)(h) (Homo sapiens, UniProt P00519, M351T).
T2 construct: gene ABL1
The method in brief:
as §1

The next assay deals with T3, JAK3(h) (Homo sapiens, UniProt P52333).
T3 sequence (P52333 1-1124): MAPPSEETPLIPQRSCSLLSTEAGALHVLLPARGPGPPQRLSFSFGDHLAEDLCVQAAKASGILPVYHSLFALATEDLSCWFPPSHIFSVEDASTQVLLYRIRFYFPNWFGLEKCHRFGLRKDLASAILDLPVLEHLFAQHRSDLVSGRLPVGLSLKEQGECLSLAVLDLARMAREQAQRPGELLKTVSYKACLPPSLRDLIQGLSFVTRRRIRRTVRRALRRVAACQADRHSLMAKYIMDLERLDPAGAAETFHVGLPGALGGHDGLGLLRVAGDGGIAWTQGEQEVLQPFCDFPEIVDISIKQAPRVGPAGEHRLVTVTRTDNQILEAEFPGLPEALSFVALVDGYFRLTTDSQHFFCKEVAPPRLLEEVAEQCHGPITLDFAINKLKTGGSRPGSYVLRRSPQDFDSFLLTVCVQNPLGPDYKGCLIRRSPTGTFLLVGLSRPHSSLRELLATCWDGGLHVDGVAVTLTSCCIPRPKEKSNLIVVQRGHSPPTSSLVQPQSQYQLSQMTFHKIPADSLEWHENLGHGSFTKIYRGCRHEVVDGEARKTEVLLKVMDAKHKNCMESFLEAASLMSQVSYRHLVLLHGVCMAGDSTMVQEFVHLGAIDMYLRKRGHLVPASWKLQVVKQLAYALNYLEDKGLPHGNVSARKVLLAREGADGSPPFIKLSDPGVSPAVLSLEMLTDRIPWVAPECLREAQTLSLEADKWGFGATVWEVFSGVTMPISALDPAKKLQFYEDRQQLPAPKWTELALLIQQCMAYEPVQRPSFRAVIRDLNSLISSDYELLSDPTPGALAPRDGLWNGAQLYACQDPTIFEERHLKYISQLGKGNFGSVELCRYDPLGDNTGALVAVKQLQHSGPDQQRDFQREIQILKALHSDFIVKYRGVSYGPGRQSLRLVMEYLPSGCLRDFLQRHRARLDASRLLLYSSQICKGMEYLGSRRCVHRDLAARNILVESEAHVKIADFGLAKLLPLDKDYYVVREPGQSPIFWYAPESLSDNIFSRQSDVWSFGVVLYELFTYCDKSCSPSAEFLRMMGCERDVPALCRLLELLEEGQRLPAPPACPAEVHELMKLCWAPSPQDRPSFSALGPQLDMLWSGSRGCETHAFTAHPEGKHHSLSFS
In short, it runs like this:
as §1

In a further assay the target is T4, LATS2(h) (Homo sapiens, UniProt Q9NRM7).
T4 sequence (Q9NRM7 1-1088): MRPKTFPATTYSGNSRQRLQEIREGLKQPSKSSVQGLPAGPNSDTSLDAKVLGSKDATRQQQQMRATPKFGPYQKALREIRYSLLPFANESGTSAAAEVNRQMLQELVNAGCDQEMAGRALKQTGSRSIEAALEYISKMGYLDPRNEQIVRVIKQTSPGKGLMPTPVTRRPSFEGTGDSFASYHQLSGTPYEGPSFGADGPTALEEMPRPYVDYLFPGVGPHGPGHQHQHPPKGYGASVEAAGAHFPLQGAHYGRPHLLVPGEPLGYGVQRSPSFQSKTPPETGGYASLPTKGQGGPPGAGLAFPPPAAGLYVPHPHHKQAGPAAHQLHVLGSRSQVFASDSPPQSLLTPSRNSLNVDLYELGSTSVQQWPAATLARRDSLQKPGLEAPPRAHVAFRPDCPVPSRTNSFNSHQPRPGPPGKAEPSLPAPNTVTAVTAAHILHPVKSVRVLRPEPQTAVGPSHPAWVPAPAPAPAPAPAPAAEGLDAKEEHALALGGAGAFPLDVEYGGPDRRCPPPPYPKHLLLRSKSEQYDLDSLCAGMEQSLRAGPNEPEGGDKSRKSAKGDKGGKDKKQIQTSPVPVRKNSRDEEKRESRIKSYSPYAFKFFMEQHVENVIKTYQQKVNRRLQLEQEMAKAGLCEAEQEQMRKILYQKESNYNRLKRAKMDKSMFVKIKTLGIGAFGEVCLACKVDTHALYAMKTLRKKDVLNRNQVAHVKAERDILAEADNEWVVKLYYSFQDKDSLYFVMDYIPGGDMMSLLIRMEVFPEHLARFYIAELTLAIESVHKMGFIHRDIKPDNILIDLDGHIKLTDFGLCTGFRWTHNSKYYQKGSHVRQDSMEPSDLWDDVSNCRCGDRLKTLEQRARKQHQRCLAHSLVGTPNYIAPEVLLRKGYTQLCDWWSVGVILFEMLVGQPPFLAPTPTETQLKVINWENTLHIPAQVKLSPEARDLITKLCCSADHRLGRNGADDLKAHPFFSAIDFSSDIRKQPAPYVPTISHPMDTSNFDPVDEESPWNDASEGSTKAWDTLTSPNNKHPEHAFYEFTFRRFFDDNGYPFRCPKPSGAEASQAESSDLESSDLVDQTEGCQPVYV
The method in brief:
as §1

The mark [1] stands for this setting: read-out: Residual activity (%) 5at.
The mark [2] stands for this setting: read-out: Residual activity (%) 5ay.
Where [3] appears, read: read-out: Residual activity (%) 5as.
Where [4] appears, read: read-out: Residual activity (%) Spautin-1 5aa.

Chain of CLK3(h) (P49761 whole entry): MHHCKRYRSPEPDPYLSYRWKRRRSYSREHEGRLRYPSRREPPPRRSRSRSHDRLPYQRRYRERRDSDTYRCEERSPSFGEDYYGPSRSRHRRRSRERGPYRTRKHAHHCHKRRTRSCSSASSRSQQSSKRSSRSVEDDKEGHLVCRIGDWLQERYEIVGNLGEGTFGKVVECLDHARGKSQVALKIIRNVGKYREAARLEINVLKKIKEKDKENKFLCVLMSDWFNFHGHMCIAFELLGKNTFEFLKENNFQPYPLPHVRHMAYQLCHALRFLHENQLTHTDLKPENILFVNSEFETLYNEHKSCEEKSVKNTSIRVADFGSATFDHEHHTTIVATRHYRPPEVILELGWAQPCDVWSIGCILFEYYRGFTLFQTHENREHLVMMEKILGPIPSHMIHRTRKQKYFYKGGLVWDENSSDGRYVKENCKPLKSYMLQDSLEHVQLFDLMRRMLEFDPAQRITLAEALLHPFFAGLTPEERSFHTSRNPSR
T1 sequence (P49841 whole entry): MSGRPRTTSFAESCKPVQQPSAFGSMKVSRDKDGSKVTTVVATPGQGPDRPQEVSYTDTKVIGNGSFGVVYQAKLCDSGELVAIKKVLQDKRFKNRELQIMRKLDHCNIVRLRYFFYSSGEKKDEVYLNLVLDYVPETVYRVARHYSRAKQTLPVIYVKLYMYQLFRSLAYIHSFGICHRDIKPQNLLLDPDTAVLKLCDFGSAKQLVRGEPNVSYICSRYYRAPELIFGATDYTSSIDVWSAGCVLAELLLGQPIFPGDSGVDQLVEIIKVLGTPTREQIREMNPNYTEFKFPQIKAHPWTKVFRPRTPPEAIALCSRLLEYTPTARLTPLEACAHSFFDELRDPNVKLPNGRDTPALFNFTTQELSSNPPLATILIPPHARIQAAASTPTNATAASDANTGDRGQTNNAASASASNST

As to `Fc1ccc2ncnc(NCCc3ccc(Cl)cc3)c2c1` [5at, N-[2-(4-Chlorophenyl)Ethyl]-6-Fluoro-4-Quinazolinamine], the remaining activity at 10 µM on GSK3β(h) (setting [1]) worked out at 97%; at CLK3(h) (setting [1]), 116%; on Abl (M351T)(h) (setting [1]), 69%; on JAK3(h) (setting [1]) it was 92%; on LATS2(h) (setting [1]) it was 75%.

Turning to `COc1ccc2ncnc(Nc3cccc(F)c3)c2c1` [5ay, N-(3-Fluorophenyl)-6-Methoxy-4-Quinazolinamine], the remaining activity at 10 µM at GSK3β(h) (setting [2]) was 76%; on CLK3(h) (setting [2]) it was 114%; at Abl (M351T)(h) (setting [2]), 76%; on JAK3(h) (setting [2]) it was 91%; at LATS2(h) (setting [2]), 72%.

As to `Fc1ccc(CCNc2ncnc3ccc(F)cc23)cc1` [5as, 6-Fluoro-N-[2-(4-Fluorophenyl)Ethyl]-4-Quinazolinamine], the remaining activity at 10 µM came to 91% on GSK3β(h) (setting [3]); 117% on CLK3(h) (setting [3]); 73% on Abl (M351T)(h) (setting [3]); 94% on JAK3(h) (setting [3]); 74% on LATS2(h) (setting [3]).

Take `Fc1ccc(CNc2ncnc3ccc(F)cc23)cc1` [5aa, 6-Fluoro-N-(4-fluorobenzyl)-4-Quinazolinamine]: the remaining activity at 10 µM stood at 85% at GSK3β(h) (setting [4]); 88% at CLK3(h) (setting [4]); 93% at Abl (M351T)(h) (setting [4]); 94% at JAK3(h) (setting [4]); 94% at LATS2(h) (setting [4]).
